The results in this text go back to patent US20230192617A1, “AZABICYCLIC(THIO)AMIDES AS FUNGICIDAL COMPOUNDS” (Bayer CropScience Aktiengesellschaft, priority 2020, published 2023).

One series deals with Alternaria alternata. The series can be described thus: Alternaria alternata in vitro cell test. Type of series: cell-based. The following applies: 120 h, 20 ppm of active ingredient, liquid culture, 5 days incubation, spectrometric measurement of mycelium growth, read-out: efficacy (inhibition of fungal growth). The gist of the method: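 Liquid culture assay in which A. alternata spores in medium received DMSO-solubilized compound (final DMSO ≤1%). After 5 days, mycelium growth was measured spectrometrically. Inhibition was calculated against fungicide-free control wells.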

Another series concerns Sphaerotheca fuliginea. As to the kind of experiment: In vivo preventive test on Sphaerotheca fuliginea (powdery mildew on cucurbits). The conditions noted are these: Podosphaera fuliginea, 192 h; 500 ppm of active ingredient; preventive spray on gherkin; evaluated 8 days after inoculation; read-out: efficacy. In outline:
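Young gherkin plants were sprayed with compound in DMSO/acetone/Tween 80 diluted in water. They were inoculated 24 h later with a spore suspension of Sphaerotheca fuliginea. Plants were then kept for 8 days at 20 °C and 70–80% relative humidity.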

For series [1], the system named is Pyrenophora teres. As to the kind of experiment: B-10. Pyrenophora teres in vitro cell test. In kind it is cell-based. The following applies: 144 h, 20 ppm of active ingredient, 6 days incubation, liquid culture, absorbance, read-out: efficacy (inhibition of fungal growth). In outline:
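Liquid-culture assay on a P. teres spore suspension with compounds added to the medium from DMSO solutions, final DMSO ≤1%. Mycelium growth read spectrometrically after 6 days. Inhibition calculated from absorbance against untreated control wells.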

The subject of series [2] is Colletotrichum lindemuthianum. The series can be described thus: In vivo preventive test on Colletotrichum lindemuthianum (leaf spot on bean). The following applies: 168 h, 500 ppm of active ingredient, preventive spray on bean, evaluated 7 days after inoculation, read-out: efficacy. In outline: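 Young bean plants sprayed with compound in DMSO/acetone/Tween 80 diluted in water; solvent-only controls. Inoculated 24 h later with C. lindemuthianum spore suspension, then kept 24 h at 20 °C/100% RH and 6 days at 20 °C/90% RH.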

Series [3] deals with Pyrenophora teres. The series can be described thus: In vivo preventive test on Pyrenophora teres (net blotch on barley). The following applies: 240 h, 500 ppm of active ingredient, preventive spray on barley, evaluated 10 days after inoculation, read-out: efficacy. The gist of the method: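 Young barley plants sprayed preventively with compound formulated in DMSO/acetone/Tween 80 and diluted in water; controls got solvent only. Inoculated 24 hours later with P. teres spore suspension, then held 48 hours at 20° C, 100% RH and 8 days at 20° C, 70-80% RH.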

In the next series the test system is Alternaria brassicae. The series can be described thus: In vivo preventive test on Alternaria brassicae (leaf spot on radish or cabbage). The following applies: 500 ppm of active ingredient, preventive spray on radish or cabbage, evaluated 3 to 4 days after inoculation, read-out: efficacy. The gist of the method:
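Young radish or cabbage plants were sprayed with compound dissolved in DMSO/acetone/Tween 80 and diluted in water; controls received solvent only. Inoculation by spraying A. brassicae spore suspension 24 h later, then 3–4 days at 20 °C and 100% relative humidity.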

Series [4] relates to Colletotrichum lindemuthianum. As to the kind of experiment: B-8. Colletotrichum lindemuthianum in vitro cell test. Type of series: cell-based. The following applies: 144 h, 20 ppm of active ingredient, 6 days incubation, liquid culture, absorbance, read-out: efficacy (inhibition of fungal growth). In outline:
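Spore suspension of C. lindemuthianum in liquid medium exposed to DMSO-solubilized compounds (final DMSO ≤1%) for 6 days. Mycelial growth read by absorbance, with inhibition calculated relative to compound-free control wells.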

Series [5] relates to Botrytis cinerea. As to the kind of experiment: B-11. Botrytis cinerea in vitro cell test. Type of series: cell-based. The conditions noted are these: 144 h, 20 ppm of active ingredient, 6 days incubation, liquid culture, absorbance, read-out: efficacy (inhibition of fungal growth). In outline:
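B. cinerea spores were grown in liquid culture with compound (DMSO ≤1% final). Mycelium growth was measured spectrometrically after 6 days, with inhibition taken as absorbance relative to untreated control wells.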

A short description of series [6]: Measurement of Log P values by HPLC on reversed phase columns (EEC directive 79/831 Annex V.A8). In kind it is physicochemical. The following applies: reversed phase HPLC column, method [a]: LC-UV, acidic range, 0.1% formic acid in water and acetonitrile as eluent. The gist of the method: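 Reversed-phase HPLC with UV detection per EEC 79/831 Annex V.A8, linear 10–95% acetonitrile gradient. Aqueous eluent: 0.1% formic acid (acidic), 0.001 M ammonium acetate (neutral), or 0.1% phosphoric acid (acidic); multiple values in one method joined by "+".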

Another series deals with Septoria tritici. The series can be described thus: B-9. Septoria tritici in vitro cell test. Type of series: cell-based. The conditions noted are these: Zymoseptoria tritici, 168 h; 20 ppm of active ingredient; 7 days incubation; liquid culture, absorbance; read-out: efficacy (inhibition of fungal growth). On the procedure: B-9. Septoria tritici In Vitro Cell Test [table] Fungicides were solubilized in DMSO and the solution used to prepare the required range of concentrations. The final concentration of DMSO used in the assay was ≤1%. A spore suspension of S. tritici was prepared and diluted to the desired spore density. Fungicides were evaluated for their ability to inhibit spore germination and mycelium growth in liquid culture assay. The compounds were added in the desired concentration to the culture medium with spores. After 7 days incubation, fungi-toxicity of compounds was determined by spectrometric measurement of mycelium growth. Inhibition of fungal growth was determined by comparing the absorbance values in wells containing the fungicides with the absorbance in control wells without fungicides.

Series [7] concerns Botrytis cinerea. The series can be described thus: In vivo preventive test on Botrytis cinerea (grey mould). The following applies: 500 ppm of active ingredient, preventive spray on gherkin or cabbage, evaluated 4 to 5 days after inoculation, read-out: efficacy. In outline: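 Young gherkin or cabbage plants were sprayed with compound in DMSO/acetone/Tween 80 diluted in water, then inoculated 24 hours later with a B. cinerea spore suspension. Incubation lasted 4 to 5 days: gherkin at 17° C., 90% relative humidity; cabbage at 20° C., 100% relative humidity.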

With `Cc1ccc([C@@H](F)CNC(=O)c2c(Oc3cccc(C(F)(F)F)c3)nnc3c2OCC(C)(C)O3)c(C)c1` (racemic) [I-155], the inhibition at 20 ppm (with Alternaria alternata; in the series on Pyrenophora teres [1]; in [4]; in the series with Botrytis cinerea [5]; in the series with Septoria tritici) was 90 to 100% each time. Further, the pest or weed control at 500 ppm (in the series with Sphaerotheca fuliginea; in [2]; with Pyrenophora teres [3]; with Alternaria brassicae) was 90 to 100% throughout. Besides, in series [6], the chromatographic logP came to 3.91.
Take `Cc1cc(Br)ccc1C(F)(F)CNC(=O)c1c(Oc2cccc(C3CC3)c2F)nnc2c1CCCC2` [I-153]: the inhibition at 20 ppm (in the series on Alternaria alternata; in the series with Pyrenophora teres [1]; in series [4]; in the series with Botrytis cinerea [5]; in the series on Septoria tritici) was 90 to 100% throughout. Besides, the pest or weed control at 500 ppm (with Sphaerotheca fuliginea; in series [2]; in the series with Pyrenophora teres [3]; in the series on Alternaria brassicae) was 90 to 100% each time.
As for `Cc1cc(Br)ccc1C(F)(F)CNC(=O)c1c(Oc2cccc(Cl)c2F)nnc2c1CCC2` [I-154], the inhibition at 20 ppm (in the series with Alternaria alternata; in the series on Pyrenophora teres [1]; in [4]; in the series with Botrytis cinerea [5]; in the series with Septoria tritici) was 90 to 100% throughout. Besides, the pest or weed control at 500 ppm (in the series with Sphaerotheca fuliginea; in series [2]; with Pyrenophora teres [3]; with Alternaria brassicae) was 90 to 100% in each case. In series [6], this compound had a chromatographic logP of 4.11.
Turning to `Cc1ccc(CCNC(=O)c2c(Oc3cccc(C(F)(F)F)c3)cnc3c2CCC3)c(C)c1` [I-157], the inhibition at 20 ppm (in the series on Alternaria alternata; in the series with Pyrenophora teres [1]; in series [4]; with Botrytis cinerea [5]; with Septoria tritici) was 90 to 100% throughout. In addition, the pest or weed control at 500 ppm (in the series on Sphaerotheca fuliginea; in [2]; in the series on Pyrenophora teres [3]; with Alternaria brassicae) was 90 to 100% each time. Besides, the chromatographic logP in series [6] was 4.23.
Regarding `Cc1cc(Cl)ccc1C(F)(F)CNC(=O)c1c(Oc2cccc(C(F)(F)F)c2)nnc2c1CCC2` [I-164], the inhibition at 20 ppm (in the series with Alternaria alternata; with Pyrenophora teres [1]; in series [4]; in the series with Botrytis cinerea [5]; with Septoria tritici) was 90 to 100% throughout. The pest or weed control at 500 ppm (with Sphaerotheca fuliginea; in [2]; in the series with Pyrenophora teres [3]; in the series with Alternaria brassicae) was 90 to 100% each time. In series [6], this compound had a chromatographic logP of 4.11.
Consider `Cc1cc(Br)ccc1C(F)(F)CNC(=O)c1c(Oc2cccc(C(F)(F)F)c2)nnc2c1CCCC2` [I-202], for which the inhibition at 20 ppm (in the series on Alternaria alternata; with Pyrenophora teres [1]; in series [4]; in the series on Botrytis cinerea [5]; with Septoria tritici) was 90 to 100% throughout. For the same compound, the pest or weed control at 500 ppm (in the series on Sphaerotheca fuliginea; in the series with Botrytis cinerea [7]; in series [2]; in the series with Pyrenophora teres [3]) was 90 to 100% each time. The compound also had a chromatographic logP in series [6] of 4.28.
For the compound `Cc1cc(Br)ccc1C(F)(F)CNC(=O)c1c(Oc2cccc(C(F)(F)F)c2)nnc2c1CCC2` [I-206], the inhibition at 20 ppm (in the series on Alternaria alternata; with Pyrenophora teres [1]; in series [4]; in the series on Botrytis cinerea [5]; in the series on Septoria tritici) was 90 to 100% in each case. Further, the pest or weed control at 500 ppm (in the series with Sphaerotheca fuliginea; in the series on Botrytis cinerea [7]; in [2]; with Pyrenophora teres [3]) was 90 to 100% in each case. For the same compound, the chromatographic logP in series [6] turned out to be 4.17.
`O=C(NCC(F)(F)c1ccc(Br)cc1Cl)c1c(Oc2cccc(C(F)(F)F)c2)nnc2c1CCCC2` [I-207]: the inhibition at 20 ppm (in the series with Alternaria alternata; in the series with Pyrenophora teres [1]; in [4]; in the series with Botrytis cinerea [5]; in the series with Septoria tritici) was 90 to 100% each time. The pest or weed control at 500 ppm (in the series with Sphaerotheca fuliginea; with Botrytis cinerea [7]; in [2]; in the series on Pyrenophora teres [3]) was 90 to 100% in each case. Also, the chromatographic logP in series [6] was found to be 4.28.
As to `O=C(NCC(F)(F)c1ccc(Br)cc1Cl)c1c(Oc2cccc(C(F)F)c2)nnc2c1CCCC2` [I-208], the inhibition at 20 ppm (in the series with Alternaria alternata; in the series on Pyrenophora teres [1]; in [4]; with Botrytis cinerea [5]; with Septoria tritici) was 90 to 100% each time. Besides, the pest or weed control at 500 ppm (in the series on Sphaerotheca fuliginea; with Botrytis cinerea [7]; in series [2]; in the series with Pyrenophora teres [3]) was 90 to 100% each time. Besides, the chromatographic logP in [6] turned out to be 3.84.
For the compound `O=C(NCC(F)(F)c1ccc(Br)cc1Cl)c1c(Oc2cccc(Cl)c2)nnc2c1CCCC2` [I-209], the inhibition at 20 ppm in the series with Alternaria alternata lay within 90 to 100%; in the series on Pyrenophora teres [1] it was 90 to 100%; in [4], 90 to 100%; with Botrytis cinerea [5], 90 to 100%; in the series with Septoria tritici, 80 to 89%. Besides, the pest or weed control at 500 ppm (with Sphaerotheca fuliginea; in the series with Botrytis cinerea [7]; in [2]; in the series with Pyrenophora teres [3]) was 90 to 100% throughout. The compound also came in with a chromatographic logP in [6] of 4.11.
Take `O=C(NCC(F)(F)c1ccc(Br)cc1Cl)c1c(Oc2cccc(Cl)c2F)nnc2c1CCCC2` [I-210]: the inhibition at 20 ppm (in the series with Alternaria alternata; in the series with Pyrenophora teres [1]; in series [4]; with Botrytis cinerea [5]; in the series with Septoria tritici) was 90 to 100% throughout. Further, the pest or weed control at 500 ppm (in the series on Sphaerotheca fuliginea; in the series with Botrytis cinerea [7]; in series [2]; in the series on Pyrenophora teres [3]) was 90 to 100% throughout. This compound showed a chromatographic logP in [6] of 4.4.
Turning to `O=C(NCC(F)(F)c1ccc(Br)cc1Cl)c1c(Oc2cccc(C3CC3)c2F)nnc2c1CCCC2` [I-211], the inhibition at 20 ppm (in the series on Alternaria alternata; in the series on Pyrenophora teres [1]; in series [4]; in the series on Botrytis cinerea [5]; in the series on Septoria tritici) was 90 to 100% each time. Besides, the pest or weed control at 500 ppm (in the series with Sphaerotheca fuliginea; in the series on Botrytis cinerea [7]; in series [2]; in the series on Pyrenophora teres [3]) was 90 to 100% in each case. Besides, the chromatographic logP in series [6] was determined as 4.69.

Usually inhibition stands for the change of the read-out against control, counted positive when it falls. Usually chromatographic logP stands for a lipophilicity value derived from retention on a column. Read a high chromatographic logP as higher lipophilicity.
